Assay results as given in paper PMC7762994 (Viruses, 2020).

Experiments:
HSPA8 = target: T1, HSPA8 (Homo sapiens, UniProt P11142); test: 2D-TPP in U87 cells; format: binding; conditions: 1.5 h, destabilized, read-out: pEC50 of protein destabilization, HSPA8 (converted)
T1 construct: endogenous in cells; host or cells: U87 cells

HSPA12A = target: T2, HSPA12A (Homo sapiens, UniProt O43301); test: 2D-TPP in U87 cells; format: binding; conditions: 1.5 h, destabilized, read-out: pEC50 of protein destabilization, HSPA12A (converted)
T2 construct: endogenous in cells; host or cells: U87 cells

HSPA1A = HSPA1A (Homo sapiens, UniProt P0DMV8); test: 2D-TPP in U87 cells
DNAJB11 [1] = target: T3, DNAJB11 (Homo sapiens, UniProt Q9UBS4); test: 2D-TPP in U87 cells
T3 sequence (Q9UBS4 23-358): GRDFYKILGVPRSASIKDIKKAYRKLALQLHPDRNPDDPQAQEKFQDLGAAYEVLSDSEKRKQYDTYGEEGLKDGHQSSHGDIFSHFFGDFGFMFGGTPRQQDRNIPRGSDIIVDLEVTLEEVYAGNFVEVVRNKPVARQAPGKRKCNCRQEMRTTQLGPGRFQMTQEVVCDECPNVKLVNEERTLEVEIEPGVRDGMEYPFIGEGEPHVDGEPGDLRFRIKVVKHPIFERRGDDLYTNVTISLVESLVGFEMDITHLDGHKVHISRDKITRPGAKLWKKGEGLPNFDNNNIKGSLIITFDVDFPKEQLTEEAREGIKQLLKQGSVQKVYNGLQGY

SW13 cells = test: Viability of SW13 cells by nuclei count in the HAZV antiviral assay; format: cell-based; conditions: Homo sapiens; HAZV, SW13, MOI 1, 24 h; read-out: Viability (nuclei count) EC50
[2] = target: T4, host proteins (proteome-wide) (Homo sapiens, UniProt A0FGR8); test: 2D-TPP in U87 cells (proteome-wide); format: binding
T4 sequence (A0FGR8 1-921): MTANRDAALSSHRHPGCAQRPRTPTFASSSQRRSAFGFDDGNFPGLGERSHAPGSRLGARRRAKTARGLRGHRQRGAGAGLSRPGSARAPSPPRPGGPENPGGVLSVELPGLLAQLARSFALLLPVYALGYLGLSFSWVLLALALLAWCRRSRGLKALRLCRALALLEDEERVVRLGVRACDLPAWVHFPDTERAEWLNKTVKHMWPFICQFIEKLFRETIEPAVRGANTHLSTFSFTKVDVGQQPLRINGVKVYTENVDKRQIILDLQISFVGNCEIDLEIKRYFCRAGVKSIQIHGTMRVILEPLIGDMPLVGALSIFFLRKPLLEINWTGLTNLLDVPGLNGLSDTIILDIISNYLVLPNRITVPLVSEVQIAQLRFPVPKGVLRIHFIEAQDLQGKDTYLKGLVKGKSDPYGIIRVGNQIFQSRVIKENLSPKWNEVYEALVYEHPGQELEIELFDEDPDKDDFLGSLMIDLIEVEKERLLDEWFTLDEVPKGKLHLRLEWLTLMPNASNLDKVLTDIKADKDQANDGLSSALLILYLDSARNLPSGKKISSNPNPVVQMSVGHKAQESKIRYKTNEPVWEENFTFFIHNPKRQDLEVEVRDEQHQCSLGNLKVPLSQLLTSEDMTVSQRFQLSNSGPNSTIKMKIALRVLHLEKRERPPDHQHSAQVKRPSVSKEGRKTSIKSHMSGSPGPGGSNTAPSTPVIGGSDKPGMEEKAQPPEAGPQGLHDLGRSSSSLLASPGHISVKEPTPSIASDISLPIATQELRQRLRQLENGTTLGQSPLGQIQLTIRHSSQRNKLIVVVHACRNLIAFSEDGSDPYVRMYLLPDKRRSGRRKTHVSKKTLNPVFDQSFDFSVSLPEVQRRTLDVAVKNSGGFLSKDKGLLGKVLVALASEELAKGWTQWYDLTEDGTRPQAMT

Hsp70 = target: T5, Hsp70 (Homo sapiens, UniProt P0DMV8); test: Cellular thermal shift assay; format: binding; conditions: U87 and SW13 cells, 56 and 59 °C, CETSA-TR at 20 μM and dose dependently
T5 construct: endogenous in cells; host or cells: U87 or SW13 cells

DNAJB11 [3] = target: T3, DNAJB11; test: TPP-TR in HAZV-infected SW13 cells
HSPA2 = target: T6, HSPA2 (Homo sapiens, UniProt P54652); test: 2D-TPP in U87 cells; format: binding; conditions: 1.5 h, destabilized, read-out: pEC50 of protein destabilization, HSPA2 (converted)
T6 construct: endogenous in cells; host or cells: U87 cells

EDEM3 [4] = target: T7, EDEM3 (Homo sapiens, UniProt Q9BZQ6); test: TPP-TR in HAZV-infected SW13 cells; conditions: 20 μM, 4 h
DNAJC3 = DNAJC3 (Homo sapiens, UniProt Q13217); test: 2D-TPP in U87 cells
[5] = target: T8, Hsp70 - HAZV NP interaction (Homo sapiens, UniProt P0DMV8); test: Hsp70 immunoprecipitation in HAZV-infected Hek293T cells; format: cell-based; conditions: HAZV MOI 1, 20 μM, 1 h, statistically not significant
T8 construct: endogenous in cells; host or cells: HEK293T cells infected with HAZV (MOI 1)

HSPA9 = target: T9, HSPA9 (Homo sapiens, UniProt P38646); test: 2D-TPP in U87 cells; format: binding
T9 construct: endogenous in cells; host or cells: U87 cells

HSP90B1 = target: T10, HSP90B1 (Homo sapiens, UniProt P14625); test: 2D-TPP in U87 cells; format: binding; conditions: 1.5 h, stabilized, read-out: pEC50 of protein stabilization, HSP90B1 (converted)
T10 construct: endogenous in cells; host or cells: U87 cells

EDEM3 [6] = target: T7, EDEM3; test: 2D-TPP in U87 cells; format: binding; design: endogenous in cells; host or cells: U87 cells; conditions: 1.5 h, stabilized, read-out: pEC50 of protein stabilization, EDEM3 (converted)
HYOU1 = target: T11, HYOU1 (Homo sapiens, UniProt Q9Y4L1); test: 2D-TPP in U87 cells; format: binding; conditions: 1.5 h, stabilized, read-out: pEC50 of protein stabilization, HYOU1 (converted)
T11 construct: endogenous in cells; host or cells: U87 cells

T7 sequence (Q9BZQ6 42-932): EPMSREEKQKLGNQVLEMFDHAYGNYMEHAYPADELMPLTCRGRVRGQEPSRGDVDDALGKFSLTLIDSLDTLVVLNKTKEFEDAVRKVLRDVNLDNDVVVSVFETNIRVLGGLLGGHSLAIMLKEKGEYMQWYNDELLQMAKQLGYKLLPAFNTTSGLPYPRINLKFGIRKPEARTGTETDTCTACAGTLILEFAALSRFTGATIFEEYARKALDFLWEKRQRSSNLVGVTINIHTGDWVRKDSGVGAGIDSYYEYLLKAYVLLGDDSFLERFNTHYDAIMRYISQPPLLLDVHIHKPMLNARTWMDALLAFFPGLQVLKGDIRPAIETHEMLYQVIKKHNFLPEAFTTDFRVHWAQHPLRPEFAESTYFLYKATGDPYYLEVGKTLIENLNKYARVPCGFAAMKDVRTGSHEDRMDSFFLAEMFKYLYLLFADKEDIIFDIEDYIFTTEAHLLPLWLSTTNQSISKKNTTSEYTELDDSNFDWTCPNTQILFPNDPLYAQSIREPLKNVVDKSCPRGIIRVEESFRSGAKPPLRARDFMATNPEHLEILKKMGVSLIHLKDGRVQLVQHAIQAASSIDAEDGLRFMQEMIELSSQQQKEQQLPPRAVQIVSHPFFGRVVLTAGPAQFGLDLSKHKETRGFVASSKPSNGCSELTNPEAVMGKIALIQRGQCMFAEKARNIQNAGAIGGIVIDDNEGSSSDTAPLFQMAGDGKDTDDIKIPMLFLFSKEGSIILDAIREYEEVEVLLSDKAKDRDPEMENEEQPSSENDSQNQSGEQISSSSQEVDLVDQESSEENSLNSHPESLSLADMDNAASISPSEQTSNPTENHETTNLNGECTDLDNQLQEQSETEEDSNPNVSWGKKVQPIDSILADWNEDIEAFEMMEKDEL
T10 sequence (P14625 22-803): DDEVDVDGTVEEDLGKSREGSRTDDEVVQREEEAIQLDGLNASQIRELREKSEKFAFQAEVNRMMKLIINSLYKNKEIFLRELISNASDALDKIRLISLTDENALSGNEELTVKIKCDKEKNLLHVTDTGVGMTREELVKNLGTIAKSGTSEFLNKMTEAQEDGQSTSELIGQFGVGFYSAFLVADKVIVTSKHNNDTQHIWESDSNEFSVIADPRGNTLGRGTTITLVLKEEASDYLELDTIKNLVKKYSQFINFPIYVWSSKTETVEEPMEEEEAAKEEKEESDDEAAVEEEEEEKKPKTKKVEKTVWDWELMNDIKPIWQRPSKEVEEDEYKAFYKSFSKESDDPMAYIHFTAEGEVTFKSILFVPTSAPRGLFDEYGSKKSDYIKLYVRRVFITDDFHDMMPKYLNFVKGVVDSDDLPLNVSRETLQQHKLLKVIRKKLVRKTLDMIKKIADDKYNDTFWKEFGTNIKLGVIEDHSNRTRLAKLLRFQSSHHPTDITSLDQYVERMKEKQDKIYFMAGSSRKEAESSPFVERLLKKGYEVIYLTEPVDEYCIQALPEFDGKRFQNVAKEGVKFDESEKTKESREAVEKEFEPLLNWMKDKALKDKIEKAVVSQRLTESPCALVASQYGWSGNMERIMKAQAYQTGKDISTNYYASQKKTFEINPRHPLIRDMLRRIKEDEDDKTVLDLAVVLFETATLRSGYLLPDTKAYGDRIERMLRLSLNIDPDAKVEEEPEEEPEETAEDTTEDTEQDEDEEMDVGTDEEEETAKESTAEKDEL
T2 sequence (O43301 whole entry): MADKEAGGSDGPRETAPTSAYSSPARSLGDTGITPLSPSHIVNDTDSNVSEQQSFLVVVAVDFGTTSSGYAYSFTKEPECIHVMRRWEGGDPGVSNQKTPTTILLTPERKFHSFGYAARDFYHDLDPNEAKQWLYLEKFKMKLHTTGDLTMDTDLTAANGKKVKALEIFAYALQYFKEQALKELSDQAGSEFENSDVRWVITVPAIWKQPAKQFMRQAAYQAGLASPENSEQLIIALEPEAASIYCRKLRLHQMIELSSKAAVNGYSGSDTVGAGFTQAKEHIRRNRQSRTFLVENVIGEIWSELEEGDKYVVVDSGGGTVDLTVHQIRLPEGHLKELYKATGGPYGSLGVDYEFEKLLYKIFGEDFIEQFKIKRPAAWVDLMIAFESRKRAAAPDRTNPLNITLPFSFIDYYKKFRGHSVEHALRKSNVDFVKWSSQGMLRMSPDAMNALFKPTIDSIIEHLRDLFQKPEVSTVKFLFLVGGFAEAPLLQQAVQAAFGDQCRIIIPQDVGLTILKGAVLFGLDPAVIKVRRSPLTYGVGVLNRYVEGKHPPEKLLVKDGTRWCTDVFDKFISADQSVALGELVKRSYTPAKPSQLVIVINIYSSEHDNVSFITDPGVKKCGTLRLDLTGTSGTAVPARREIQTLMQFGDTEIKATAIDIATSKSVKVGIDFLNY
T6 sequence (P54652 whole entry): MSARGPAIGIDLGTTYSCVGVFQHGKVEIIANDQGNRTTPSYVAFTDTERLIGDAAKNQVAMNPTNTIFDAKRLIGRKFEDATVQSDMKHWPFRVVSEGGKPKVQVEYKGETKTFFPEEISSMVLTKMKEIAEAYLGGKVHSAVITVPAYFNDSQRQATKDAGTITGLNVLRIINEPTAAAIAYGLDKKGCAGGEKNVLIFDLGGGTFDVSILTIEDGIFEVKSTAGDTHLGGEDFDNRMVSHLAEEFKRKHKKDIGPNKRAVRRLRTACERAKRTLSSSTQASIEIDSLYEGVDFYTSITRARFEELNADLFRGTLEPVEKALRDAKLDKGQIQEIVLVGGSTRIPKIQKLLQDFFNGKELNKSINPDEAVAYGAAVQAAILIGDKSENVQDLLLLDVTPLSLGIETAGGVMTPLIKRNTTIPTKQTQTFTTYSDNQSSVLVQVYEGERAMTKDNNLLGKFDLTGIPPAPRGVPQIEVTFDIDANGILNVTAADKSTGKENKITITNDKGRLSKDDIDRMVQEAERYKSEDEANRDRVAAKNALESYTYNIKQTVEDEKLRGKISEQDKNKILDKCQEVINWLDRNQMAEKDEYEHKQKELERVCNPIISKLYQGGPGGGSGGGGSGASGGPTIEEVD
T5 sequence (P0DMV8 whole entry): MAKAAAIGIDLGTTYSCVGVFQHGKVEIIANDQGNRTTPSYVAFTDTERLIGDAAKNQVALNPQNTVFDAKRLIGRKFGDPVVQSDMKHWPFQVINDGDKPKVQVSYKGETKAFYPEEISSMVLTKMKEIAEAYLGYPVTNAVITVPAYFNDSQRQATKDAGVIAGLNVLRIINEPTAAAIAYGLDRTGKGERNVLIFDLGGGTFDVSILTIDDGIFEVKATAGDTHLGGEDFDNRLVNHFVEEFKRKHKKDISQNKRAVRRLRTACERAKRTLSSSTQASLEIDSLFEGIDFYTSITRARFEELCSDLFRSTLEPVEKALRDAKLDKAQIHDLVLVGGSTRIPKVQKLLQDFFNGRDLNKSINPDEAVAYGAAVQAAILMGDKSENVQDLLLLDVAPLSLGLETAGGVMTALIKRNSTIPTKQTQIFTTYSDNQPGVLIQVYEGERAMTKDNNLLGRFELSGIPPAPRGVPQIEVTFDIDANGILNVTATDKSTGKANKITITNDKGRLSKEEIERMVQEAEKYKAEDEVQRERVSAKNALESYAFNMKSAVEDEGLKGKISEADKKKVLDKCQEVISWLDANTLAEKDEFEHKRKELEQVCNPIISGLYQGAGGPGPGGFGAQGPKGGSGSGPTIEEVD
Chain of HSPA1A (P0DMV8 whole entry): as above
T9 sequence (P38646 47-679): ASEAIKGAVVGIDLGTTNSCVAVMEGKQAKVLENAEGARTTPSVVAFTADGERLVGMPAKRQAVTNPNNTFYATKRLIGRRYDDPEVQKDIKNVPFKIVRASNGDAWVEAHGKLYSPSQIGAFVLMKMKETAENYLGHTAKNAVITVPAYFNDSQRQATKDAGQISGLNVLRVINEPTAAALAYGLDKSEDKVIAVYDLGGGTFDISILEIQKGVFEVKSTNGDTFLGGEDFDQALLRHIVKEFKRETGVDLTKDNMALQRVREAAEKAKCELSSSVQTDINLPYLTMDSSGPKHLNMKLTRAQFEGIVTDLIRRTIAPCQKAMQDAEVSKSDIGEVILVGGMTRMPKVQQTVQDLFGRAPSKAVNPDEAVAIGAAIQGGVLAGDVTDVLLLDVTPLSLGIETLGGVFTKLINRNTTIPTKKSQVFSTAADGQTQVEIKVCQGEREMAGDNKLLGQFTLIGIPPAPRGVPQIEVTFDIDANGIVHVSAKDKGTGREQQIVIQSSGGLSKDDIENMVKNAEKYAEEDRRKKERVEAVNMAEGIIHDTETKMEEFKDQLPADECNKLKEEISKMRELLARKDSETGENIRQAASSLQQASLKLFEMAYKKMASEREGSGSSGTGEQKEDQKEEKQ

## CCOC(=O)c1cnn(-c2cccc3c2[nH]c(=O)n3C2CCN(C(=O)Nc3ccc(I)cc3)CC2)c1 [TH6744, ethyl 1-(1-(1-((4-iodophenyl)carbamoyl)piperidin-4-yl)-2-oxo-2,3-dihydro-1H-benzo[d]imidazol-4-yl)-1H-pyrazole-4-carboxylate]
HSPA8
  EC50: 5.01 µM
HSPA12A
  EC50: 12.6 µM
HSPA1A
  EC50: 3.16 µM
DNAJB11 [1]
  EC50: 7.94 µM
SW13 cells
  EC50: 37.4 µM
[2]; protein A0FGR8 (ESYT2), temperature 54, Set2
  pec50: 5.517
[2]; protein A0FGR8 (ESYT2), temperature 54, dose 1, Set2
  norm_rel_fc_protein_1_unmodified: 0.9139
[2]; protein A0FGR8 (ESYT2), temperature 54, dose 3, Set2
  norm_rel_fc_protein_3_unmodified: 0.7618
[2]; protein A0FGR8 (ESYT2), temperature 54, dose 10, Set2
  norm_rel_fc_protein_10_unmodified: 0.587
[2]; protein A0FGR8 (ESYT2), temperature 54, dose 30, Set2
  norm_rel_fc_protein_30_unmodified: 0.5111
[2]; protein A0FGR8 (ESYT2), temperature 57, Set2
  pec50: 5.71
[2]; protein A0FGR8 (ESYT2), temperature 57, dose 1, Set2
  norm_rel_fc_protein_1_unmodified: 0.8819
[2]; protein A0FGR8 (ESYT2), temperature 57, dose 3, Set2
  norm_rel_fc_protein_3_unmodified: 0.7127
[2]; protein A0FGR8 (ESYT2), temperature 57, dose 10, Set2
  norm_rel_fc_protein_10_unmodified: 0.531
[2]; protein A0FGR8 (ESYT2), temperature 57, dose 30, Set2
  norm_rel_fc_protein_30_unmodified: 0.5493
[2]; protein A0FGR8-2 (ESYT2), temperature 54, Set2
  pec50: 5.517
[2]; protein A0FGR8-2 (ESYT2), temperature 54, dose 1, Set2
  norm_rel_fc_protein_1_unmodified: 0.9139
[2]; protein A0FGR8-2 (ESYT2), temperature 54, dose 3, Set2
  norm_rel_fc_protein_3_unmodified: 0.7618
[2]; protein A0FGR8-2 (ESYT2), temperature 54, dose 10, Set2
  norm_rel_fc_protein_10_unmodified: 0.587
[2]; protein A0FGR8-2 (ESYT2), temperature 54, dose 30, Set2
  norm_rel_fc_protein_30_unmodified: 0.5111
Hsp70
  Hsp70 thermal stability (CETSA): Hsp70 destabilization
DNAJB11 [3]; 20 μM, 4 h
  thermal stability change of DNAJB11: stabilized
DNAJB11 [3]; read-out: ΔTm of DNAJB11
  ΔTm at 20 µM: 13.6 °C
HSPA2
  EC50: 3.16 µM
EDEM3 [4]
  thermal stability change of EDEM3: stabilized
DNAJC3
  EC50: 3.16 µM
[5]
  increase of HAZV NP interaction with Hsp70 (signal intensity): 2 fold
HSPA9
  thermal stability change of HSPA9: destabilized
HSP90B1
  EC50: 6.31 µM
EDEM3 [6]
  EC50: 1 µM
HYOU1
  EC50: 10 µM
